The melting point is the temperature of the solid-liquid transition.

SMILES strings stand for the structures.

On to `OC(Cc1ccncc1)C(Cl)(Cl)Cl` (configuration not stated), for which the melting point fell in the range of 166 to 168 °C.

The compound `Cc1ccc2c(c1)c1c(n2C(=O)c2ccccc2)CCCC1C(=O)OCc1ccccc1` (configuration not stated) came in with a melting point of 119 to 121 °C.

`Oc1ccc(-c2cc3c(Oc4ccc(Cl)cc4)cncc3s2)cc1` yielded a melting point of 213 to 215 °C.

Turning to `CC(C)N(Cc1ccc(Cl)c(Cl)c1)S(=O)(=O)c1cc2ccccc2s1`, the melting point is 133 to 135 °C.

`CN(C)c1ccc(C(=O)C(C)(C)N2CCOCC2)cc1`: the melting point lay in the range of 152 to 155 °C.

In the case of `NC(=O)C(=O)NC(C(=O)O)c1ccccc1` (configuration not stated), the melting point was 193 °C.

Regarding `Cc1noc(C)c1Cn1cc(N2C(=O)CNC2=O)cn1`, the melting point lay within 169 to 171 °C.

Compound `COc1ccccc1N1CCN(CCC(C(=O)NCCN2CCOCC2)c2ccccc2)CC1` (configuration not stated) showed a melting point of 60 to 65 °C.

Compound `C[Si](C)(C)C#Cc1cccc2c1C1(c3ccccc3-c3ccccc31)c1ccccc1-2` registered a melting point of 205 to 206 °C.

Compound `CCNC(=O)Oc1ccc2c(N(C)CCN3CCOCC3)noc2c1` showed a melting point of 99 to 100 °C.

For `CN(N)c1ccc(-c2ccc(Cl)cc2)nn1`, the melting point fell in the range of 170 to 172 °C.

For `COc1ccc(S(=O)(=O)n2c(CCCC(=O)O)cc3nc(Cl)ccc32)c(C)c1`, the melting point lay in the range of 134 to 140 °C.

The compound `COc1cc2c(cc1OC)C(=O)C(C#N)C2` (configuration not stated) came in with a melting point of 177 to 179 °C.

`FC(F)(F)c1cccc(Oc2cc(Oc3cccc(C(F)(F)F)c3)nc(Br)n2)c1` had a melting point of 126 to 129 °C.

With `CCCC1=C(C(=O)OC)C(c2ccccc2Cl)c2c[nH]nc2N1` (configuration not stated), the melting point was 203 to 207 °C.

For `NC(=O)COc1cccc(CCNS(=O)(=O)c2ccc(Br)cc2)c1`, the melting point fell in the range of 115 to 116 °C.

`COc1ccc(OCc2ccc3ccccc3n2)cc1` yielded a melting point of 79 to 80 °C.

Consider `COC(=O)c1ccc(-c2ccc3cc(OCc4ccccc4)c(C45CC6CC(CC(C6)C4)C5)cc3c2)cc1`, for which the melting point lay within 170 to 173 °C.

Compound `Brc1ccccc1Cc1nc(-c2ccncc2)cs1` showed a melting point of 114 to 116 °C.

The compound `O=C(NCCCl)Oc1ccc(Cl)c2cccnc12` returned a melting point of 146 °C.

In turn, `Cn1c(-c2ccccc2)c(-c2ccc(C(=O)O)cc2)c2ccccc21` gave a melting point of 165 to 166 °C.

`CCS(=O)(=O)Oc1cccc([N+](=O)[O-])c1`: the melting point was found to be 110 °C.

The compound `O=c1c(CCCc2ccccn2)cc2cccnc2n1-c1ccc2nsnc2c1` showed a melting point of 170 °C.

For `CC(C)(C)C1=NN(c2ccc(C(=O)O)cc2)C(c2ccc(Cl)c(Cl)c2)C1` (configuration not stated), the melting point is 217 °C.

Regarding `CCCc1nc2cccc(C(=O)O)c2n1Cc1ccc(-c2ccccc2-c2nc(=O)o[nH]2)cc1`, the melting point is 169 to 171 °C.

`O=S1(=O)c2ccccc2NC2CCCN21` (configuration not stated) had a melting point of 149 to 154 °C.

`Cc1cc(OC(=O)c2ccc(Cl)c(OCCn3cnnn3)c2Cl)n(C)n1`: the melting point lay in the range of 138 to 140 °C.

For the compound `Clc1cc(-c2csc(Cc3ccccc3)n2)ccn1`, the melting point lay within 104 to 106 °C.

`Cc1noc(NC(=O)N2CCN(c3cncc(-c4ccc(F)cc4F)n3)CC2)c1C` registered a melting point of 225 to 226 °C.

As for `O=C(NC1Cc2cccc(-c3ccc(F)cc3)c2C1)c1ccc(F)cc1` (configuration not stated), the melting point came out at 157 °C.

`CCc1nn2c(N3CCNCC3)cc(C)nc2c1S(=O)(=O)c1ccccc1` returned a melting point of 150 to 151 °C.

Compound `NS(=O)(=O)CCCCCCl` displayed a melting point of 62 °C.

Compound `Cn1nnnc1SCC(=O)Nc1ccc(C2CCCCC2)cc1` showed a melting point of 204 to 205 °C.

Regarding `Cc1[nH]cnc1/C=C1\CCCc2c(c3ccccc3n2C)C1=O`, the melting point is 230 to 232 °C.

Consider `Cc1cc(Cl)nc2ccc(Br)cc12`, for which the melting point is 139 to 140 °C.

Take `Cc1nn(-c2ccccn2)c2[nH]c3ccc(N(C)C)cc3c(=O)c12`: the melting point was in the range of 171 to 173 °C.

In turn, `Cc1cn(C2CCc3ccccc3C2)c(=S)n1Cc1ccc(C(=O)O)cc1` (configuration not stated) gave a melting point of 181 to 182 °C.

With `CC(C)S(=O)(=O)n1cc(-c2ccc(Oc3ccccc3)cc2)c2c(N)ncnc21`, the melting point is 162 °C.

On to `CCCCCCCCCCCCc1ccccc1C(Sc1nc(CCC)c(C(=O)O)n1C)C(=O)O` (configuration not stated), for which the melting point lay within 124 to 125 °C.

Turning to `O=C(NC1(C(=O)O)CCCCC1)C(CS)Cc1ccccc1` (configuration not stated), the melting point was 193 to 195 °C.

As to `NC(=O)N(O)CC#Cc1cccc(Oc2ccccn2)c1`, the melting point was in the range of 158 to 160 °C.

As to `COc1ccc(CCN(C)CCOc2ccc(NC(=O)c3cccc4c(=O)c5ccccc5n(C)c34)cc2)cc1OC`, the melting point came out at 139 °C.

Consider `N#Cc1cc([N+](=O)[O-])ccc1OC12CC3CC(CC(C3)C1)C2`, for which the melting point fell in the range of 187 to 189 °C.

Regarding `O=c1[nH]c2ccc(S(=O)CCN3CCC(Cc4ccc(F)cc4F)CC3)cc2o1` (configuration not stated), the melting point was 166 to 168 °C.

`COc1ccc(S(=O)(=O)Nc2ccccc2NC=O)cc1` showed a melting point of 143 to 144 °C.

`COc1cc(C(=O)CBr)cc(OC)c1OC` came in with a melting point of 61 to 62 °C.

For `COc1cc(OC)c2c(=O)[nH]c(-c3cc(C)c(OCC(C)(C)O)c(C)c3)cc2c1`, the melting point was 252 to 254 °C.

The compound `CCOC(=O)CCCCC(=O)c1c(C)cc(C)c(C)c1O` came in with a melting point of 72 to 73 °C.

Compound `CCN(CC)CCNc1ccc(C2C(C(=O)OC)=C(C)NC(C)=C2C(=O)OC)cc1[N+](=O)[O-]` came in with a melting point of 161 °C.

`CC(=O)C(=Cc1ccc(C(=O)O)cc1)C(C)=O` showed a melting point of 195 to 199 °C.

`Cn1c(C(F)(F)F)nn(-c2ccccc2N)c1=O`: the melting point was found to be 101 °C.

`COc1ccc(CN([C@@H](CO)c2ccccc2)S(=O)(=O)c2ccc(Cl)cc2)cc1C(=O)O` came in with a melting point of 79 to 80 °C.

For `CCOCc1cnc2c([N+](=O)[O-])cccc2c1Cl`, the melting point was 110 to 126 °C.

`Oc1ccccc1CCC1NCCS1` (configuration not stated) showed a melting point of 100 to 102 °C.

`N#Cc1ccc(C=Cc2ccc(C#N)cc2)cc1` registered a melting point of 288 °C.

Turning to `COC(=O)n1nc(Oc2c(F)cc(C(F)(F)F)cc2Cl)cc1C`, the melting point was in the range of 123 to 125 °C.

`Cc1cccc(CC(=O)c2ccnc(-c3ccc(OCC(N)=O)cc3)c2)n1` displayed a melting point of 168 °C.

As for `O=c1c(CCl)c[nH]c2c([N+](=O)[O-])cccc12`, the melting point lay in the range of 228 to 235 °C.

As for `Cc1oc(-c2ccccc2)nc1CCOS(C)(=O)=O`, the melting point is 88.2 to 89 °C.

In turn, `Cn1c(CO)nc([N+](=O)[O-])c1C#N` registered a melting point of 122 to 124 °C.

`Cc1cc(C)c2nc(C)n(Cc3ccc(NCC4CCN(C(C)C)CC4)cc3)c2n1` registered a melting point of 134 to 136 °C.

With `Clc1cn2c(Cl)cnc2c(Br)n1`, the melting point lay in the range of 100 to 101 °C.

Compound `CC(C)(C)OC(=O)C(Nc1ccccc1)c1ccc(Cl)cc1` (racemic) showed a melting point of 98 °C.

The compound `CN1CC2CCCC(C1)C2=NO` had a melting point of 111 to 112 °C.

`CN(C)CCSc1ccc2ccc(N)nc2n1` had a melting point of 174 °C.

In the case of `CCNC=C(C(=O)C=Cc1ccc(N(C)C)c(C)c1)C(=O)OC`, the melting point lay in the range of 98 to 100 °C.

In turn, `CSC(CC(CCCl)C(=O)c1ccccc1)C(N)C(N)=O` (configuration not stated) yielded a melting point of 174 °C.

In the case of `O=C1NC(=O)C(CC(=O)N2CCN(c3cccc(CNC(=O)c4nc5ccccc5c(=O)[nH]4)c3)CC2)N1` (configuration not stated), the melting point lay within 280 to 282 °C.

For the compound `CC(=O)NCC1CN(c2ccc(N3CCN(c4nc5ccccc5s4)CC3)c(F)c2)C(=O)O1` (configuration not stated), the melting point is 239 to 240 °C.

Take `O=C(CCC(=O)N1CCC(c2ccc(Cl)cc2)CC1)c1ccc2c(c1)CCN(CC1CCCO1)CC2` (configuration not stated): the melting point fell in the range of 123 to 125 °C.

Compound `COc1ccc(C(=O)C(CCc2cccc(OC)c2)c2ccccc2)cc1` (configuration not stated) registered a melting point of 79 to 85 °C.

As for `Cc1c(C)c2c(c(C)c1NC(=O)c1ccc(F)cc1)C(c1ccc(C(C)C)cc1)C1(CCN(C)CC1)O2` (configuration not stated), the melting point lay in the range of 271 to 272 °C.

`O=C(c1ccccc1)N1CCC(CO)CC1` came in with a melting point of 83 to 85 °C.

In the case of `Nc1ccc(Nc2ccc(CCc3ccc(Cl)c(Cl)c3)cc2)c(C(=O)O)c1`, the melting point fell in the range of 137 to 142 °C.

The compound `CC(=O)Nc1cc(C(O)CN(Cc2ccccc2)C(C)Cc2ccc(O)cc2)ccc1OCc1ccccc1` (configuration not stated) came in with a melting point of 141 to 143 °C.

As for `CCn1nc(-c2ccccc2)c(-c2csc(-c3ccc(OC)cc3)n2)c(Nc2cccnc2)c1=O`, the melting point lay within 201 to 202 °C.

Compound `Nc1nc(-c2ccncc2)nc2[nH]c(S)nc12` gave a melting point of over 330 °C.

Consider `COC(=O)CCc1cc(O)cc2cc(-c3ccc(O)cc3)oc12`, for which the melting point was 167 to 170 °C.

Regarding `C=C(C)C(=O)OCCOc1ccc(C(=O)O)cc1`, the melting point stood at 146 °C.

Compound `Clc1nc(-c2ccccc2)no1` registered a melting point of 40 to 42 °C.

The compound `CN1CC(CO)CC2(O)c3cccc4[nH]cc(c34)CC12` (configuration not stated) came in with a melting point of 175 to 179 °C.

In turn, `Cc1[nH]cnc1CSCCN=C(N)N` gave a melting point of 141 to 142 °C.

In the case of `O=C1C=C(O)CC(CCC2CCCC2)(C2CCCC2)O1` (configuration not stated), the melting point lay in the range of 130 to 132 °C.

Consider `NS(=O)(=O)c1ccc(Cl)c(NC(=O)c2cnn3c(C(F)(F)F)cc(-c4ccc(C(F)(F)F)cc4)nc23)c1`, for which the melting point was 300 °C.

`COc1ccc2ccc(NC(=O)C3CC3)nc2n1`: the melting point worked out at 170 °C.

As for `Nc1nc2c(s1)CCN(CC=Cc1cccc(Cl)c1)CC2`, the melting point was in the range of 132 to 136 °C.

Compound `O=C(O)c1ccccc1S(=O)(=O)Cc1c(O[C@H](Cn2ccnc2)c2ccccc2)ccc2c1CCCC2=O` displayed a melting point of 230 °C.

In turn, `CCOc1cccc(C2NC(C(=O)O)CS2)c1OCCO[N+](=O)[O-]` (configuration not stated) yielded a melting point of 124 to 125 °C.

In turn, `NC(=O)Cc1cnc2c(NC(=O)c3c(Cl)cccc3Cl)cccc2c1` came in with a melting point of 251 to 253 °C.

As to `CC(C)Cc1cc(OCc2ccccc2)c2c(c1)OC(C)(C)CC2=O`, the melting point fell in the range of 77.5 to 78 °C.

The compound `OCc1cnc2sc3ccccc3n12` had a melting point of 183 to 184 °C.

With `Cc1cc(O)n(C2CCCCC2)n1`, the melting point amounted to 153 °C.

The values are drawn from a melting point compilation (Tetko et al.; mined from patent text by program, amines drawn as free bases though some values may be those of a salt).
